Results from patent US20250197409A1, “BIFUNCTIONAL COMPOUND AND PHARMACEUTICAL COMPOSITION COMPRISING THE BIFUNCTIONAL COMPOUND, AND METHOD FOR TREATING ANDROGEN RECEPTOR RELATED DISEASE BY USING THE SAME” (ANHORN MEDICINES CO., LTD., priority 2022, published 2025).
Like-named read-outs stand apart in the source and are kept apart here.

Target: T1, androgen receptor (Homo sapiens, UniProt P10275, T878A)
T1 construct: host or cells: LNCaP.FGC
Assay: Androgen receptor degradation assay using Western blot analysis
Type: cell-based
How it was run: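 LNCaP.FGC cells (2×10^5/well) treated with 10-fold serial dilutions in RPMI from 100 nM stock; untreated cells as negative control. AR Western signal normalized to GAPDH, expressed as % remaining versus untreated (100%). DC50 derived from calibration curve of serial dilutions.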

[1] = 24 h, LNCaP.FGC cells, 100 nM, 24 hr, normalized to GAPDH, untreated cells = 100%; read-out: Androgen Receptor Remaining (%)
[2] = LNCaP.FGC cells, serial 10x dilutions from 100 nM; read-out: AR DC50 (concentration needed for 50% AR degradation)
[3] = 24 h, read-out: Androgen Receptor Remaining (%), LNCaP.FGC cells, 100 nM, 24 hr, normalized to GAPDH, untreated cells = 100%
[4] = read-out: AR DC50 (concentration needed for 50% AR degradation); LNCaP.FGC cells, serial 10x dilutions from 100 nM
[5] = LNCaP.FGC cells, 100 nM, 24 hr, normalized to GAPDH, untreated cells = 100%

T1 sequence (P10275 whole entry T878A): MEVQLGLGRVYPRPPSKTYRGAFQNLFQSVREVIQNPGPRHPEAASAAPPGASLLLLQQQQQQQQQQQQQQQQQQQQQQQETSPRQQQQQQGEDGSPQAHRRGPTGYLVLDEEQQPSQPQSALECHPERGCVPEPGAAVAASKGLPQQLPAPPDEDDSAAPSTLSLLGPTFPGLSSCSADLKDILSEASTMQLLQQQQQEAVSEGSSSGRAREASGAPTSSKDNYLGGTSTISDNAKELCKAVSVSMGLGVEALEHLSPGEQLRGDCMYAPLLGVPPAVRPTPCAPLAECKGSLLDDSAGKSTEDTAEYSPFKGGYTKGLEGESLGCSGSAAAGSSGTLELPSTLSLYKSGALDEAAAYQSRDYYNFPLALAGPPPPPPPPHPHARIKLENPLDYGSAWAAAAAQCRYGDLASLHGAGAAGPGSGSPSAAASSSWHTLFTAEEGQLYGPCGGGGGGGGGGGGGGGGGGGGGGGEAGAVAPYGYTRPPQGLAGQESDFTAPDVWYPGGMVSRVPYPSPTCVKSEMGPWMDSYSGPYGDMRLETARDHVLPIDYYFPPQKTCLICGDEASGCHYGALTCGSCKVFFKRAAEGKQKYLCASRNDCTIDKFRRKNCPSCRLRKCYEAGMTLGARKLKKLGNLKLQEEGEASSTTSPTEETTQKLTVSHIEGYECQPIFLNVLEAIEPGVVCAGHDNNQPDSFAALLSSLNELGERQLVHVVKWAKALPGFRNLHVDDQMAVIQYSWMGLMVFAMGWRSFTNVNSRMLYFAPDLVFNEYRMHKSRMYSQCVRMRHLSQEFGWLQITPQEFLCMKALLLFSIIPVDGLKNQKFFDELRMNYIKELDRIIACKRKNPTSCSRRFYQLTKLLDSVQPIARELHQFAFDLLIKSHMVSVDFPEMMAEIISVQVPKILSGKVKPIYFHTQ
T1 sequence (Q96SW2 whole entry partner): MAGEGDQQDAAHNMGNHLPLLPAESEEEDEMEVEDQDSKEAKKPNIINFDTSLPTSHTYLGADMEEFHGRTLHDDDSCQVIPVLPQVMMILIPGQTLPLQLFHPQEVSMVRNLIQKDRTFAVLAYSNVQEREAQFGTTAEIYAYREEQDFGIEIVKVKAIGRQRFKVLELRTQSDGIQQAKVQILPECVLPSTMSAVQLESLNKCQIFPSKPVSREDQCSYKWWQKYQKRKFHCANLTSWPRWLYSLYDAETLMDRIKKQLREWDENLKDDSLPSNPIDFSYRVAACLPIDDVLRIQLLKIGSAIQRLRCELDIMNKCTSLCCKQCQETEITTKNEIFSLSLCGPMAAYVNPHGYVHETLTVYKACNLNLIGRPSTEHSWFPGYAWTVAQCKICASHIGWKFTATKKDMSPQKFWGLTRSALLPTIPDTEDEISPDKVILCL

Compound | remaining activity at 0.1 µM [3] [%] | DC50 [4] [nM] | other results
Cn1c2c(c3ccc(OCCN4CCC5(CC4)CN(c4ccc(C(=O)N[C@H]6CC[C@H](Oc7ccc(C#N)c(Cl)c7)CC6)nn4)C5)cc31)C(=O)N(C1CCC(=O)NC1=O)C2=O (stereo partly shown) [Compound 88] |  |  | remaining activity at 0.1 µM [1]: 10%; DC50 [2]: 10 to 25 nM
CCn1c2c(c3ccc(OCCCCN4CCN(c5ccc(C(=O)N[C@H]6CC[C@H](Oc7ccc(C#N)c(Cl)c7)CC6)nn5)CC4)cc31)C(=O)N(C1CCC(=O)NC1=O)C2=O (stereo partly shown) [Compound 89] | 7 | < 10 | 
CCn1c2c(c3ccc(OCCCCN4CCCN(c5ccc(C(=O)N[C@H]6CC[C@H](Oc7ccc(C#N)c(Cl)c7)CC6)nn5)CC4)cc31)C(=O)N(C1CCC(=O)NC1=O)C2=O (stereo partly shown) [Compound 90] | 28 | 25 to 100 | 
CCn1c2c(c3ccc(OCCCCN4CCN(c5ccc(C(=O)N[C@H]6CC[C@H](N(C)c7ccc(C#N)c(Cl)c7)CC6)nn5)CC4)cc31)C(=O)N(C1CCC(=O)NC1=O)C2=O (stereo partly shown) [Compound 91] | 0 | 10 to 25 | 
Cn1c2c(c3ccc(OCCCN4CCC5(CC4)CN(c4ccc(C(=O)N[C@H]6CC[C@H](Oc7ccc(C#N)c(Cl)c7)CC6)nn4)C5)cc31)C(=O)N(C1CCC(=O)NC1=O)C2=O (stereo partly shown) [Compound 92] |  |  | remaining activity at 0.1 µM [1]: 6%; DC50 [2]: 25 to 100 nM
C=Nc1ccc(O[C@H]2CC[C@H](NC(=O)c3ccc(N4CC5(CCN(CCCOc6ccc7c8c(n(CC(F)F)c7c6)C(=O)N(C6CCC(=O)NC6=O)C8=O)CC5)C4)nn3)CC2)cc1Cl (stereo partly shown) [Compound 93] | 11 | 25 to 100 | 
CCn1c2c(c3ccc(OCCCN4CC5(CCN(c6ccc(C(=O)N[C@H]7CC[C@H](Oc8ccc(C#N)c(Cl)c8)CC7)nn6)CC5)C4)cc31)C(=O)N(C1CCC(=O)N(COCC[Si](C)(C)C)C1=O)C2=O (stereo partly shown) [Compound 94] | 89 |  | 
CCn1c2c(c3ccc(OCCCN4CC5(CCN(c6ccc(C(=O)N[C@H]7CC[C@H](Oc8ccc(C#N)c(Cl)c8)CC7)nn6)CC5)C4)cc31)C(=O)N(C1CCC(=O)N(CO)C1=O)C2=O (stereo partly shown) [Compound 95] | 1 | 10 to 25 | 
CCn1c2c(c3ccc(OCCCN4CC5(CCN(c6ccc(C(=O)N[C@H]7CC[C@H](Oc8ccc(C#N)c(Cl)c8)CC7)nn6)CC5)C4)cc31)C(=O)N(C1CCC(=O)NC1=O)C2=O (stereo partly shown) [Compound 96] |  | 10 to 25 | Androgen Receptor Remaining (%) [5]: 1%
CCn1c2c(c3ccc(OCCCN4CCN(c5ccc(C(=O)N[C@H]6CC[C@H](Oc7ccc(C#N)c(Cl)c7)CC6)nn5)[C@H](C)C4)cc31)C(=O)N(C1CCC(=O)NC1=O)C2=O (stereo partly shown) [Compound 98] | 26 | 25 to 100 | 
CCn1c2c(c3ccc(OCCN4CCN(c5ccc(C(=O)N[C@H]6CC[C@H](Oc7ccc(C#N)c(Cl)c7)CC6)nn5)[C@H](C)C4)cc31)C(=O)N(C1CCC(=O)NC1=O)C2=O (stereo partly shown) [Compound 99] | 39 | 25 to 100 | 
CCn1c2c(c3ccc(OCCCCN4C5CCC4CN(c4ccc(C(=O)N[C@H]6CC[C@H](Oc7ccc(C#N)c(Cl)c7)CC6)nn4)C5)cc31)C(=O)N(C1CCC(=O)NC1=O)C2=O (stereo partly shown) [Compound 100] | 44 | 25 to 100 | 
N#Cc1ccc(O[C@H]2CC[C@H](NC(=O)c3ccc(N4CC5(CCN(CCOc6ccc7c8c(n(CC(F)F)c7c6)C(=O)N(C6CCC(=O)NC6=O)C8=O)CC5)C4)nn3)CC2)cc1Cl (stereo partly shown) [Compound 103] | 52 |  | 
CN(c1ccc(C#N)c(Cl)c1)[C@H]1CC[C@H](NC(=O)c2ccc(N3CCN(CCOc4ccc5c6c(n(CC(F)F)c5c4)C(=O)N(C4CCC(=O)NC4=O)C6=O)CC3)nn2)CC1 (stereo partly shown) [Compound 104] | 42 | 25 to 100 | 
N#Cc1ccc(O[C@H]2CC[C@H](NC(=O)c3ccc(N4CCN(CCOc5ccc6c7c(n(CC(F)F)c6c5)C(=O)N(C5CCC(=O)NC5=O)C7=O)CC4)nn3)CC2)cc1Cl (stereo partly shown) [Compound 105] | 42 | 25 to 100 | 
CCn1c2c(c3ccc(OCCN4CCC5(CC4)CN(c4ccc(C(=O)N[C@H]6CC[C@H](N(C)c7ccc(C#N)c(Cl)c7)CC6)nn4)C5)cc31)C(=O)N(C1CCC(=O)NC1=O)C2=O (stereo partly shown) [Compound 106] | 119 |  | 
CCn1c2c(c3ccc(OCCCN4CCC5(CC4)CN(c4ccc(C(=O)N[C@H]6CC[C@H](N(C)c7ccc(C#N)c(Cl)c7)CC6)nn4)C5)cc31)C(=O)N(C1CCC(=O)NC1=O)C2=O (stereo partly shown) [Compound 107] | 15 |  | 
CN(c1ccc(C#N)c(Cl)c1)[C@H]1CC[C@H](NC(=O)c2ccc(N3CC4(CCN(CCOc5ccc6c7c(n(CC(F)F)c6c5)C(=O)N(C5CCC(=O)NC5=O)C7=O)CC4)C3)nn2)CC1 (stereo partly shown) [Compound 108] | 19 |  | 
CCn1c2c(c3ccc(OCCN4CCCN(c5ccc(C(=O)N[C@H]6CC[C@H](N(C)c7ccc(C#N)c(Cl)c7)CC6)nn5)CC4)cc31)C(=O)N(C1CCC(=O)NC1=O)C2=O (stereo partly shown) [Compound 110] | 34 | 10 to 25 | 

Compound | remaining activity at 0.1 µM [3] [%] | DC50 [4] [nM] | other results
CCn1c2c(c3ccc(OCCCCN4CCCN(c5ccc(C(=O)N[C@H]6CC[C@H](N(C)c7ccc(C#N)c(Cl)c7)CC6)nn5)CC4)cc31)C(=O)N(C1CCC(=O)NC1=O)C2=O (stereo partly shown) [Compound 112] | 32 | 10 to 25 | 
CCn1c2c(c3ccc(OCCOCCN4CCN(c5ccc(C(=O)N[C@H]6CC[C@H](Oc7ccc(C#N)c(Cl)c7)CC6)nn5)CC4)cc31)C(=O)N(C1CCC(=O)NC1=O)C2=O (stereo partly shown) [Compound 113] | 26 | 10 to 25 | 
CCn1c2c(c3ccc(OCCOCCN4CCN(c5ccc(C(=O)N[C@H]6CC[C@H](N(C)c7ccc(C#N)c(Cl)c7)CC6)nn5)CC4)cc31)C(=O)N(C1CCC(=O)NC1=O)C2=O (stereo partly shown) [Compound 114] | 21 | 10 to 25 | 
CCn1c2c(c3ccc(OCCOCCN4CCN(c5ccc(C(=O)N[C@H]6CC[C@H](Oc7ccc(C#N)c(Cl)c7)CC6)nn5)CC4)cc31)C(=O)N(C1CCC(=O)NC1=O)C2=O (stereo partly shown) [Compound 115] |  | 25 to 100 | Androgen Receptor Remaining (%) [5]: 26%
CCn1c2c(c3ccc(OCCCCCN4CCN(c5ccc(C(=O)N[C@H]6CC[C@H](N(C)c7ccc(C#N)c(Cl)c7)CC6)nn5)CC4)cc31)C(=O)N(C1CCC(=O)NC1=O)C2=O (stereo partly shown) [Compound 116] | 37 | 25 to 100 | 
CCn1c2c(c3ccc(OCCCN4CCN(c5ccc(N6C(=S)N(c7ccc(C#N)c(C(F)(F)F)c7)C(=O)C6(C)C)cc5)CC4)cc31)C(=O)N(C1CCC(=O)NC1=O)C2=O (stereo not shown) [Compound 117] | 56 |  | 
CCn1c2c(c3ccc(OCCN4CCN(c5ccc(N6C(=S)N(c7ccc(C#N)c(C(F)(F)F)c7)C(=O)C6(C)C)cc5)CC4)cc31)C(=O)N(C1CCC(=O)NC1=O)C2=O (stereo not shown) [Compound 118] | 80 |  | 
CCn1c2c(c3ccc(OCC(=O)N4CCN(c5ccc(C(=O)N[C@H]6CC[C@H](Oc7ccc(C#N)c(Cl)c7)CC6)nn5)CC4)cc31)C(=O)N(C1CCC(=O)N(CO)C1=O)C2=O (stereo partly shown) [Compound 120] | 48 | 25 to 100 | 
CCn1c2c(c3ccc(OCC(=O)N4CCN(c5ccc(C(=O)N[C@H]6CC[C@H](Oc7ccc(C#N)c(Cl)c7)CC6)nn5)CC4)cc31)C(=O)N(C1CCC(=O)NC1=O)C2=O (stereo partly shown) [Compound 121] | 48 | 25 to 100 | 
CCn1c2c(c3ccc(OCC(=O)N4CCC5(CC4)CN(c4ccc(C(=O)N[C@H]6CC[C@H](Oc7ccc(C#N)c(Cl)c7)CC6)nn4)C5)cc31)C(=O)N(C1CCC(=O)N(CO)C1=O)C2=O (stereo partly shown) [Compound 122] | 33 | > 100 | 
CCn1c2c(c3ccc(OCC(=O)N4CCC5(CC4)CN(c4ccc(C(=O)N[C@H]6CC[C@H](Oc7ccc(C#N)c(Cl)c7)CC6)nn4)C5)cc31)C(=O)N(C1CCC(=O)NC1=O)C2=O (stereo partly shown) [Compound 123] | 33 | > 100 | 
CCn1c2c(c3ccc(OCC(=O)N4CCN(c5ccc(C(=O)N[C@H]6CC[C@H](N(C)c7ccc(C#N)c(Cl)c7)CC6)nn5)CC4)cc31)C(=O)N(C1CCC(=O)N(CO)C1=O)C2=O (stereo partly shown) [Compound 124] | 57 |  | 
CCn1c2c(c3ccc(OCC(=O)N4CCN(c5ccc(C(=O)N[C@H]6CC[C@H](N(C)c7ccc(C#N)c(Cl)c7)CC6)nn5)CC4)cc31)C(=O)N(C1CCC(=O)NC1=O)C2=O (stereo partly shown) [Compound 125] | 57 |  | 
CCn1c2c(c3ccc(OCC(=O)N4CC5(CCN(c6ccc(C(=O)N[C@H]7CC[C@H](Oc8ccc(C#N)c(Cl)c8)CC7)nn6)CC5)C4)cc31)C(=O)N(C1CCC(=O)N(CO)C1=O)C2=O (stereo partly shown) [Compound 126] | 58 |  | 
CCn1c2c(c3ccc(OCC(=O)N4CC5(CCN(c6ccc(C(=O)N[C@H]7CC[C@H](Oc8ccc(C#N)c(Cl)c8)CC7)nn6)CC5)C4)cc31)C(=O)N(C1CCC(=O)NC1=O)C2=O (stereo partly shown) [Compound 127] | 58 |  | 
CCn1c2c(c3ccc(OCC(=O)N4CCC5(CC4)CN(c4ccc(C(=O)N[C@H]6CC[C@H](N(C)c7ccc(C#N)c(Cl)c7)CC6)nn4)C5)cc31)C(=O)N(C1CCC(=O)N(CO)C1=O)C2=O (stereo partly shown) [Compound 128] | 63 |  | 
CCn1c2c(c3ccc(OCC(=O)N4CCC5(CC4)CN(c4ccc(C(=O)N[C@H]6CC[C@H](N(C)c7ccc(C#N)c(Cl)c7)CC6)nn4)C5)cc31)C(=O)N(C1CCC(=O)NC1=O)C2=O (stereo partly shown) [Compound 129] | 63 |  | 
CCn1c2c(c3ccc(OCC(=O)N4CCCN(c5ccc(C(=O)N[C@H]6CC[C@H](N(C)c7ccc(C#N)c(Cl)c7)CC6)nn5)CC4)cc31)C(=O)N(C1CCC(=O)N(CO)C1=O)C2=O (stereo partly shown) [Compound 130] | 51 |  | 
CCn1c2c(c3ccc(OCC(=O)N4CCCN(c5ccc(C(=O)N[C@H]6CC[C@H](N(C)c7ccc(C#N)c(Cl)c7)CC6)nn5)CC4)cc31)C(=O)N(C1CCC(=O)NC1=O)C2=O (stereo partly shown) [Compound 131] | 51 |  | 
